In PubChem BioAssay AID330 (DTP/NCI, 2004):
Values joined by “and” are separate entries in the source; they are usually repeats but may differ in a detail not shown here. Equal values may be shown once. Toxic doses and inconclusive results are not listed. The calls were made as follows: active = survival T/C of 150% or more; inactive = T/C below 125% in these data.

System: P388 leukemia ip, CD2F1 mice, survival T/C
Assay: NCI In Vivo Anticancer Drug Screen. Data for tumor model P388 Leukemia (intraperitoneal) in CD2F1 (CDF1) mice
Conditions: endpoint: median survival time, higher = longer survival
Method in brief: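 Mice carrying the transplanted tumor received test compound or vehicle. Survival was recorded in each group, and the value is the treated-group measurement divided by that of the vehicle-treated control group.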

[1] = dose: 50.0 mg/kg/injection, schedule: Q01DX009 (ip), vehicle: Klucel (hydroxypropylcellulose) (HPC)
[2] = dose: 100.0 mg/kg/injection, schedule: Q01DX009 (ip), vehicle: Klucel (hydroxypropylcellulose) (HPC)
[3] = dose: 200.0 mg/kg/injection, schedule: Q01DX009 (ip), vehicle: Klucel (hydroxypropylcellulose) (HPC)
[4] = dose: 60.0 mg/kg/injection, schedule: Q01DX005 (ip), vehicle: saline with Tween-80
[5] = dose: 120.0 mg/kg/injection, schedule: Q01DX005 (ip), vehicle: saline with Tween-80
[6] = dose: 240.0 mg/kg/injection, schedule: Q01DX005 (ip), vehicle: saline with Tween-80
[7] = dose: 50.0 mg/kg/injection, schedule: Q01DX009 (ip), vehicle: saline with Tween-80
[8] = dose: 100.0 mg/kg/injection, schedule: Q01DX009 (ip), vehicle: saline with Tween-80
[9] = dose: 200.0 mg/kg/injection, schedule: Q01DX009 (ip), vehicle: saline with Tween-80

Measured: T/C

CC(C)[C@](O)(C(=O)OCC1CC[N+]2([O-])CC[C@@H](O)C12)[C@H](C)O (some centres not stated)
inactive: dose: 187.5 mg/kg/injection, schedule: Q01DX009 (ip), vehicle: saline 94 % of control | dose: 375.0 mg/kg/injection, schedule: Q01DX009 (ip), vehicle: saline 106 % of control | dose: 750.0 mg/kg/injection, schedule: Q01DX009 (ip), vehicle: saline 95 % of control | dose: 1500.0 mg/kg/injection, schedule: Q01DX009 (ip), vehicle: saline 106 % of control

CNS(=O)(=O)c1cc([N+](=O)[O-])c(N2CCCCC2)c([N+](=O)[O-])c1
inactive: [1] 100 % of control | [2] 100 % of control | [3] 99 % of control

O=C1c2cc3c(cc2C(=O)c2[nH]ncc21)OCO3
inactive: [4] 92 % of control | [5] 100 % of control | [6] 96 % of control

COc1cc2ccnc(Cc3ccc4c(c3)OCO4)c2cc1OC
inactive: dose: 50.0 mg/kg/injection, schedule: Q01DX009 (ip), vehicle: saline 115 % of control | dose: 100.0 mg/kg/injection, schedule: Q01DX009 (ip), vehicle: saline 95 % of control | dose: 100.0 mg/kg/injection, schedule: Q04DX003 (ip), vehicle: saline 100 % of control | dose: 200.0 mg/kg/injection, schedule: Q01DX009 (ip), vehicle: saline 100 % of control | dose: 200.0 mg/kg/injection, schedule: Q04DX003 (ip), vehicle: saline 100 % of control | dose: 400.0 mg/kg/injection, schedule: Q04DX003 (ip), vehicle: saline 95 % of control

CC(=O)CSc1ccc(Cl)cc1
inactive: [7] 99 % of control | [8] 102 % of control | [9] 116 % of control

C1CCN2CC3CC(CN4CCCCC34)C2C1 (configuration not stated)
inactive: dose: 1.87 mg/kg/injection, schedule: Q01DX005 (ip), vehicle: saline 100 % of control | dose: 3.75 mg/kg/injection, schedule: Q01DX005 (ip), vehicle: saline 101 % of control | dose: 6.2 mg/kg/injection, schedule: Q01DX007 (ip), vehicle: carboxymethylcellulose (CMC) 91 % of control | dose: 7.5 mg/kg/injection, schedule: Q01DX005 (ip), vehicle: saline 102 % of control | dose: 12.5 mg/kg/injection, schedule: Q01DX007 (ip), vehicle: carboxymethylcellulose (CMC) 100 % of control | dose: 15.0 mg/kg/injection, schedule: Q01DX005 (ip), vehicle: saline 100 % of control | dose: 25.0 mg/kg/injection, schedule: Q01DX005 (ip), vehicle: saline 92 % of control | dose: 25.0 mg/kg/injection, schedule: Q01DX007 (ip), vehicle: carboxymethylcellulose (CMC) 91 % of control | dose: 50.0 mg/kg/injection, schedule: Q01DX005 (ip), vehicle: saline 99 % of control

CS/N=C(/c1ccc(/C(=N/SC)N(C)C)cc1)N(C)C
inactive: dose: 60.0 mg/kg/injection, schedule: Q01DX005 (ip), vehicle: Klucel (hydroxypropylcellulose) (HPC) 106 % of control | [4] 100 % of control | dose: 120.0 mg/kg/injection, schedule: Q01DX005 (ip), vehicle: Klucel (hydroxypropylcellulose) (HPC) 106 % of control | [5] 102 % of control | [6] 99 % of control

CCC(CC)OCCN1CCN(CCCN2c3ccccc3Sc3ccc(C(F)(F)F)cc32)CC1
inactive: dose: 0.75 mg/kg/injection, schedule: Q01DX009 (ip), vehicle: saline with Tween-80 110 % of control | dose: 1.5 mg/kg/injection, schedule: Q01DX009 (ip), vehicle: saline with Tween-80 94 % of control | dose: 2.5 mg/kg/injection, schedule: Q04DX003 (ip), vehicle: saline 110 % of control and 93 % of control | dose: 3.0 mg/kg/injection, schedule: Q01DX009 (ip), vehicle: saline with Tween-80 99 % of control | dose: 5.0 mg/kg/injection, schedule: Q04DX003 (ip), vehicle: saline 101 % of control and 97 % of control | dose: 6.0 mg/kg/injection, schedule: Q01DX009 (ip), vehicle: saline with Tween-80 100 % of control | dose: 10.0 mg/kg/injection, schedule: Q04DX003 (ip), vehicle: saline with Tween-80 99 % of control and 122 % of control | dose: 10.0 mg/kg/injection, schedule: Q04DX003 (ip), vehicle: saline 109 % of control and 96 % of control | dose: 12.0 mg/kg/injection, schedule: Q01DX009 (ip), vehicle: saline with Tween-80 110 % of control | dose: 20.0 mg/kg/injection, schedule: Q04DX003 (ip), vehicle: saline with Tween-80 109 % of control and 119 % of control | dose: 20.0 mg/kg/injection, schedule: Q04DX003 (ip), vehicle: saline 113 % of control and 98 % of control

COC(=O)CCCCCCCCCCCCCC1C=CCC1 (configuration not stated)
inactive: dose: 100.0 mg/kg/injection, schedule: Q01DX001 (ip), vehicle: saline 101 % of control | dose: 200.0 mg/kg/injection, schedule: Q01DX001 (ip), vehicle: saline 100 % of control | dose: 400.0 mg/kg/injection, schedule: Q01DX001 (ip), vehicle: saline 101 % of control

O=NN(c1ccccc1)c1ccccc1
inactive: [7] 101 % of control | [8] 100 % of control | [9] 98 % of control

COc1cc(OCc2ccccc2)c(CC(=O)O)c([N+](=O)[O-])c1
inactive: dose: 100.0 mg/kg/injection, schedule: Q01DX001 (ip), vehicle: saline with Tween-80 100 % of control | dose: 200.0 mg/kg/injection, schedule: Q01DX001 (ip), vehicle: saline with Tween-80 100 % of control | dose: 400.0 mg/kg/injection, schedule: Q01DX001 (ip), vehicle: saline with Tween-80 90 % of control

CCN(CC)Cc1cc(N)cc(N=Nc2ccc3c(c2)c2ccccc2n3CC)c1O
inactive: [7] 97 % of control | [8] 108 % of control | [9] 105 % of control

CC(CCO)CCCO (configuration not stated)
inactive: [4] 97 % of control | [5] 95 % of control | [6] 101 % of control

CC(C)N(C(C)C)P1P(N(C(C)C)C(C)C)P(N(C(C)C)C(C)C)P1N(C(C)C)C(C)C (configuration not stated)
inactive: [4] 88 % of control | [5] 86 % of control | [6] 89 % of control

Fc1ccccc1CSc1ncnc2nc[nH]c12
inactive: [7] 100 % of control | [8] 100 % of control | dose: 100.0 mg/kg/injection, schedule: Q04DX003 (ip), vehicle: saline with Tween-80 104 % of control | dose: 132.0 mg/kg/injection, schedule: Q04DX003 (ip), vehicle: saline with Tween-80 100 % of control | [9] 100 % of control

CSC1NN=C(CCC(=O)Nc2ccc(C)cc2)O1 (configuration not stated)
inactive: [4] 108 % of control | [5] 92 % of control | [6] 102 % of control

CCCCCCCCCCCC[N+]1([O-])CCCCC1
inactive: dose: 12.5 mg/kg/injection, schedule: Q01DX009 (ip), vehicle: saline 89 % of control | dose: 25.0 mg/kg/injection, schedule: Q01DX009 (ip), vehicle: saline 91 % of control

O=C(NC(=O)c1c(F)cccc1F)Nc1ccc(C(O)(C(F)(F)F)C(F)(F)F)cc1
inactive: dose: 50.0 mg/kg/injection, schedule: Q01DX005 (ip), vehicle: saline with Tween-80 102 % of control | dose: 100.0 mg/kg/injection, schedule: Q01DX005 (ip), vehicle: saline with Tween-80 100 % of control | dose: 200.0 mg/kg/injection, schedule: Q01DX005 (ip), vehicle: saline with Tween-80 109 % of control

COc1cc(/C=C/C(=O)NCCCCN)ccc1O
inactive: [4] 105 % of control | [5] 101 % of control | [6] 95 % of control

O=S(=O)(CCS(=O)(=O)c1ccccc1)c1ccccc1
inactive: [7] 92 % of control | [8] 92 % of control | [9] 89 % of control

COC1C(Br)C(C)(OC)c2ccccc2N1C#N (configuration not stated)
inactive: [1] 101 % of control | [2] 100 % of control | [3] 100 % of control

CCCCCCCCCCCCCCCCOc1ccc(-c2cc(Cl)c3cc(S(=O)(=O)F)ccc3n2)cc1S(=O)(=O)F
inactive: [7] 86 % of control | dose: 50.0 mg/kg/injection, schedule: Q04DX003 (ip), vehicle: saline with Tween-80 90 % of control | [9] 90 % of control | dose: 200.0 mg/kg/injection, schedule: Q04DX003 (ip), vehicle: saline with Tween-80 90 % of control

Nc1nc(Nc2ccccc2)nc(SCc2ccccc2)n1
inactive: dose: 25.0 mg/kg/injection, schedule: Q01DX009 (ip), vehicle: saline with Tween-80 99 % of control | [7] 90 % of control | [8] 88 % of control

CC(C)(C)OC(=O)NC(CCCCNC(=O)OCC1c2ccccc2-c2ccccc21)C(=O)O (configuration not stated)
inactive: dose: 50.0 mg/kg/injection, schedule: Q01DX005 (ip), vehicle: Klucel (hydroxypropylcellulose) (HPC) 103 % of control | dose: 100.0 mg/kg/injection, schedule: Q01DX005 (ip), vehicle: Klucel (hydroxypropylcellulose) (HPC) 99 % of control | dose: 200.0 mg/kg/injection, schedule: Q01DX005 (ip), vehicle: Klucel (hydroxypropylcellulose) (HPC) 103 % of control

Cc1ccc2nc(NC(=S)NCCCCNC(=S)Nc3ccc4cc(C)ccc4n3)ccc2c1
inactive: [1] 98 % of control | [2] 94 % of control | [3] 89 % of control
